Reference: patent publication US8946197B2, “Transglutaminase TG2 inhibitors, pharmaceutical compositions, and methods of use thereof” (CHDI Foundation, Inc., priority 2009, dated 2015)
pIC50: −log10 of the molar value. “And” between values parts separate entries of the source, which are not always exact repeats. Identical values can stand only once.

biological target: T1, human TG2 (Homo sapiens, UniProt P21980); assay: fluorescent screening assay for human TG2; type: biochemical; conditions: 20 nM TG2, 8 μM N,N-dimethylated Casein, 16 μM KxD, pH 7.4, 37° C
T1 sequence (P21980 1-687): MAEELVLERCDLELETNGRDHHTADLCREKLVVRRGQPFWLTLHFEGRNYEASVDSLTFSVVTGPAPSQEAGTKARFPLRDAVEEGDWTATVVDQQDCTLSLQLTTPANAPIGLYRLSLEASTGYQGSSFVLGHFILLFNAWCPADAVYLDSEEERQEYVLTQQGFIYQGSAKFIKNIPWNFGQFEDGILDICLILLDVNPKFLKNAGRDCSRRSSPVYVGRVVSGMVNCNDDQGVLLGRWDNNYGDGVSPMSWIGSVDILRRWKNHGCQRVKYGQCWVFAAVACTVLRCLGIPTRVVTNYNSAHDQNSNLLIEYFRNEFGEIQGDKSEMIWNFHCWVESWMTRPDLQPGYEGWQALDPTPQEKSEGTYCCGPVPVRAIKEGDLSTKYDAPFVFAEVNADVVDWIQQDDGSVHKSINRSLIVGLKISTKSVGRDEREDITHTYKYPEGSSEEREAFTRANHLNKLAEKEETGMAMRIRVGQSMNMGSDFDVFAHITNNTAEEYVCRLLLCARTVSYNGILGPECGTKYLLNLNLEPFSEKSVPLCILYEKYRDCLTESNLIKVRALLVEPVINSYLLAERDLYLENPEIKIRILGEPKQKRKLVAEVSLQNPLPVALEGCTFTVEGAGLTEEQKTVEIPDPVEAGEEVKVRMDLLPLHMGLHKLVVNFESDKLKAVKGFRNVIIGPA
Method in brief: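 20 nM TG2 with 8 μM N,N-dimethylated casein and 16 μM K×D in 25 mM Hepes pH 7.4, 250 mM NaCl, 2 mM MgCl2, 0.5 mM CaCl2, 0.2 mM DTT, 0.05% Pluronic F-127 at 37° C. Fluorescence (ex 350, em 535 nm) was read every 3 min for up to 2 h. Initial linear velocity served as activity.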

| Structure (SMILES) | pIC50 |
| --- | --- |
| C=CC(=O)Nc1ccc(S(=O)(=O)N2CCN(C(=O)C3CCOCC3)CC2)cc1 [N-{4-[4-(Tetrahydro-pyran-4-carbonyl)-piperazine-1-sulfonyl]-phenyl}-acrylamide] | 6.00 to 7.00 and > 7.00 |
| C=CC(=O)Nc1ccc(S(=O)(=O)NCc2ccc(-c3ccccc3)nc2)cc1 [N-{4-[(6-Phenyl-pyridin-3-ylmethyl)-sulfamoyl]-phenyl}-acrylamide] | 4.60 to 6.00 |
| C=CC(=O)Nc1ccc(S(=O)(=O)N(Cc2ccccc2)Cc2ccc(Cl)cc2)cc1 [N-{4-[Benzyl-(4-chloro-benzyl)-sulfamoyl]-phenyl}-acrylamide] | 4.60 to 6.00 |
| C=CC(=O)Nc1ccc(S(=O)(=O)N(C)Cc2csc(N3CCOCC3)n2)cc1 [N-{4-[Methyl-(2-morpholin-4-yl-thiazol-4-ylmethyl)-sulfamoyl]-phenyl}-acrylamide] | 4.60 to 6.00 |
| C=CC(=O)Nc1ccc(S(=O)(=O)N(C)Cc2cccc(CN3CCCC3)c2)cc1 [N-{4-[Methyl-(3-pyrrolidin-1-ylmethyl-benzyl)-sulfamoyl]-phenyl}-acrylamide] | 4.60 to 6.00 |
| C=CC(=O)Nc1ccc(S(=O)(=O)N2CCC(N(C)C(=O)OC(C)(C)C)CC2)cc1 [[1-(4-Acryloylamino-benzenesulfonyl)-piperidin-4-yl]-methyl-carbamic acid tert-butyl ester] | 6.00 to 7.00 and > 7.00 |
| C=CC(=O)Nc1ccc(S(=O)(=O)N(C)CCN(C)C(=O)OCc2ccccc2)cc1 [{2-[(4-Acryloylamino-benzenesulfonyl)-methyl-amino]-ethyl}-methyk-carbamic acid benzyl ester] | 4.60 to 6.00 |
